# Structures can show the parent of a compound that is named as a salt. Where two headings read alike, the source gives them in different places.
# Key:
# [1] = test system: #155 cells (primary cells from a patient with pharmacoresistent epilepsy); assay: Drug screening, AlamarBlue assay in #155 control cells; type: cell-based, human; settings: 1 μM
# Experimental: (§1) Experiments were performed in triplicates for each sample.
# As an alternative control, primary cells were evaluated, which were obtained from a patient suffering from pharmacoresistent epilepsy (patient #155).
# [2] = test system: glioma cell line U87; assay: Drug screening, AlamarBlue assay in U87; type: cell-based; settings: for inhibition at 1 µM: Glioma cell, 144 h, read-out: reduction of the relative metabolic activity of U87
# Experimental: as §1
# For comparison with our four patient-specific primary GBM cell specimens, we used the commercially available glioma cell line U87 that is frequently investigated in drug discovery settings (FIG. 2).
# [3] = test system: four patient-specific primary GBM cultures; settings: for effect on the primary GBM cells' metabolic activity: 1 μM
# Experimental: Before screening, cell number was titrated for each cell line separately to ensure that cell proliferation remained in a linear-exponential phase throughout the experiment. 24 hours after seeding 2−3×10^3 cells/well into laminin/poly-L-ornithine coated 96-well plates, primary cultures were treated with 2 nM, 1 μM or 10 μM of each compound (stock solution 10 mM in DMSO). As a reference we treated cells with 50 μM and 500 μM temozolomide (TMZ, SigmaAldrich, Taufkirchen, Germany; stock solution of 100 mM in DMSO). Control cells were treated with 0.5-0.01% DMSO. Six days after application, cell viability was determined using the AlamarBlue® assay according to the manufacturers recommendations (Invitrogen, Karlsruhe, Germany). Fluorescence was measured using an Infinite200 microplate reader (Tecan, Crailsheim, Germany) at Xex=540 nm and Xem=590 nm. Experiments were performed in triplicates for each sample.
# To identify cytotoxic and cytostatic compounds, we conducted in vitro drug-screening assays in four different patient-specific primary GBM cultures (see Table 1 for basic characterization of research specimens).
# The compound library was screened at three different concentrations (10 μM, 1 μM, 2 nM). The relative metabolic activity was determined after a 5-day incubation with compounds. […] For reference, we applied 50 μM (reported plasma peak concentration) and 500 μM of temozolomide (TMZ, as described in Beier et al., 2008), the current standard chemotherapeutic GBM drug to our cells. […] However, “hits” in the setting of a primary screening were defined as a reduction of the relative metabolic activity under the level of 50% of DMSO-treated control cells.
# [4] = test system: patient-specific GBM primary cells; assay: Pharmacodynamic analysis of pristimerin, AlamarBlue (ICM50); type: cell-based; settings: Homo sapiens, 120 h
# Experimental: For pharmacodynamic analyses of pristimerin and niclosamide 5×10^4 cells were plated in 12 well plates 24 h before they were treated with concentrations indicated. 5 days after the treatment, cell viability was monitored by the AlamarBlue® assay. Experiments were performed in triplicates. The ICM50 is the concentration of agent that reduced the metabolic activity by 50% under the experimental conditions.
# Pristimerin induces apoptosis in GBM primary cells. […] Because the peak plasma concentration of pristimerin is not yet known, we investigated a range of concentrations between 70 nM and 10 μM (FIG. 5). Under these conditions, pristimerin is potently cytotoxic at median ICM50's (half maximal inhibitory concentration of metabolic activity) of approximately 500 nM (FIG. 5a,b,d)
# [5] = test system: clonogenic, neurosphere-forming GBM cells; assay: Neurosphere assay after pristimerin; type: cell-based, human; settings: single dose 1 μM, cases 046, 078, 106
# Experimental: Based on previous investigations (Scheffler et al., 2005), a single cell suspension of 1×10^4 cells/cm^2 was diluted in 1% methylcellulose-containing PROL media provided with 20 ng/ml EGF/bFGF, and inoculated into nonadhesive culture dishes. 10 ng/ml EGF/bFGF was then added every other day. Neurospheres were quantified at 21 days in culture, triturated to a single cell suspension, which was used for plating under identical conditions and analysis of the formation of secondary or higher degree neurospheres. For analysis of multipotency, a representative fraction of 3° neurospheres were used. Neurospheres were plated onto laminin/poly-L-ornithine coated glass coverslips and, after attachment, provided with PROL media devoid of mitogens to allow differentiation for 2-3 weeks in culture before PFA-fixation and immunofluorescence analysis.
# Furthermore, a single dose of pristimerin decreased the frequency of clonogenic, i.e. neurosphere-forming cells by 30-60% (FIG. 9a,b). Depletion of clonogenic cells was never observed at concentrations of […]. Clonogenic cells were always able to selfrenew and form higher-degree neurospheres that gave rise to immature neurons and astrocytes (FIG. 9c). These findings indicate that Pristimerin is not selectively inhibiting GBM cancer stem cells. […]
# [6] = test system: GBM primary cells; assay: Growth kinetic analysis (proliferation kinetics); type: cell-based, human; settings: single dose 1 μM
# Experimental: Five days after treatment in 6 cm dishes, 47,000 vital cells were plated into 3.5 cm laminin/poly-L-ornithine coated plastic dishes. 20 ng/ml EGF/bFGF were provided upon plating, and 10 ng/ml EGF/bFGF were added every other day thereafter. Four-to-six days later, adherent cells were trypsinized, harvested, counted, and plated at a density of 4.7×10^4 cells. This procedure was repeated for 4-5 passages. Mean values are presented with standard error.
# Cells surviving the application of Pristimerin expand linearly on a logarithmic scale. There is an initial delay of cell growth lasting for a maximum of 10 days. However, thereafter, every patient-specific GBM primary culture we investigated thus far continued to proliferate as well as their respective DMSO-control (FIG. 7).
# [7] = test system: GBM primary cells (035, 046); assay: Long-term monitoring of cell confluency (CellaVista); type: cell-based, human; settings: single dose 1 μM, post compound application
# Experimental: FIG. 8: Long-term monitoring of cellular confluency post application of 1 μM pristimerin (dotted lines) in two independent GBM primary cell culture experiments (035=triangle; 046=squares) (solid line, 0.1% DMSO). Live cell-imaging was performed using the CellaVista system according to its specifications (Roche Diagnostics).
# We used the CellaVistasystem (Roche Diagnostics, Mannheim) for monitoring of cell confluency as a surrogate analysis tool.
# [8] = test system: GBM primary cells under non-adherent conditions (neurospheres); assay: Pristimerin in 3D culture, non-adherent growth conditions (ICM50); type: cell-based; settings: Homo sapiens, single dose, specimens 046, 078, 106
# Description: FIG. 11: Inhibition of GBM primary cells under adherent (solid line) vs. non-adherent (dotted line) conditions. Results represent the mean of triplicate-well-analysis for 3 different specimens at each concentration (046, 078, 106)
# The GBM-inhibitory activity of Pristimerin was confirmed in 3D culture systems, i.e. non-adherent growth conditions (FIG. 11). Under anchorage-withdrawal, GBM cells form neurospheres, and investigation of their metabolic response patterns indicated a more resistant phenotype.
# [9] = test system: patient-specific GBM primary cultures; assay: AnnexinV-based FACS analysis of apoptosis; type: cell-based, human; settings: 1 μM, 5-day exposure, in 7 out of 8 cultures
# Experimental: […] 1×10^5 cells were sedimented by centrifugation, resuspended in […] AnnexinV buffer (BD Bioscience, Heidelberg, Germany) and incubated with 5 μl Annexin V-FITC (BD Bioscience, Heidelberg, Germany) for 1 h at RT. To distinguish between living and dead cells, labeling with 1.2 μg/ml bisbenzimide H33258 (Invitrogen, Karlsruhe, Germany) was used. Expression was determined using standard conditions in a LSRII equipped with FACSDiva Software (BD Bioscience, Heidelberg, Germany). For each measurement, 20.000 cells were counted. Annexin V positive cells, Annexin V and H33258 positive cells and H33258 positive cells were termed avital cells.
# These effects could be validated as compound-specific, based on analysis of Pristimerin purchased from an independent supplier that yielded similar results (Sigma; FIG. 1b). For further experimentation, pristimerin was applied at 1 μM concentrations (FIG. 1c). […] In 7 out of 8 investigated patient-specific GBM primary cultures more than 50% of all cells could be classified as avital (FIG. 6; ***p<0.001, compared to their respective DMSO-treated control cells).
# [10] = in vivo; cited from earlier work
smiles,measurement,setting,value
Nc1nc2nc[nH]c2c(=S)[nH]1 [Thioguanine],effect on the metabolic activity of the #155 cells,[1],very little effect
same,inhibition at 1 µM,[2]; 1 μM,≤ 50%
O=c1[nH]c(=O)n([C@H]2C[C@H](O)[C@@H](CO)O2)cc1F [Floxuridine],effect on the metabolic activity of the #155 cells,[1],very little effect
same,inhibition at 1 µM,[2]; 1 μM,≤ 50%
N=c1ccn2c(n1)O[C@H]1[C@H](O)[C@@H](CO)O[C@H]12 [Ancitabine hydrochloride],inhibition at 1 µM,[2]; 1 μM,≤ 50%
CC(=O)O[C@H]1C(=O)[C@@]2(C)[C@H]([C@H](OC(=O)c3ccccc3)[C@]3(O)C[C@H](OC(=O)[C@H](O)[C@@H](NC(=O)c4ccccc4)c4ccccc4)C(C)=C1C3(C)C)[C@]1(OC(C)=O)CO[C@@H]1C[C@@H]2O [paclitaxel],effect on the metabolic activity of the #155 cells,[1],very little effect
O=C(Nc1ccc([N+](=O)[O-])cc1Cl)c1cc(Cl)ccc1O [Niclosamide],effect on the metabolic activity of the #155 cells,[1],very little effect
same,inhibition at 1 µM,[2]; 1 μM,≤ 50%
CCCCCCCCCCCCCC(=O)O[C@@H]1[C@@H](C)[C@@]2(O)[C@@H](C=C(CO)C[C@]3(O)C(=O)C(C)=C[C@@H]23)[C@@H]2C(C)(C)[C@]12OC(C)=O [phorbol myristate acetate],effect on the metabolic activity of the #155 cells,[1],diminished the metabolic activity of the #155 cells significantly
same,effect on the primary GBM cells' metabolic activity,[3],no significant effect
CC[C@H]1CN2CCc3cc(OC)c(OC)cc3[C@@H]2C[C@@H]1C[C@H]1NCCc2cc(OC)c(OC)cc21 [emetine],effect on the metabolic activity of the #155 cells,[1],very little effect
CN(Cc1cnc2nc(N)nc(N)c2n1)c1ccc(C(=O)N[C@@H](CCC(=O)O)C(=O)O)cc1 [Methotrexate],effect on the metabolic activity of the #155 cells,[1],very little effect
same,inhibition at 1 µM,[2]; 1 μM,≤ 50%
CC[C@@]1(O)C(=O)OCc2c1cc1n(c2=O)Cc2cc3cc(O)ccc3nc2-1 [10-Hydroxycamptothecin],effect on the metabolic activity of the #155 cells,[1],very little effect
COc1cc(O)c2c(c1)C(=O)c1cc(C)cc(O)c1C2=O [Physicion],influence on the U87's metabolic activity,[2]; 1 μM,significant influence
same,effect on the primary GBM cells' metabolic activity,[3],without affecting
COC(=O)[C@]1(C)CC[C@]2(C)CC[C@]3(C)C4=CC=C5C(=CC(=O)C(O)=C5C)[C@]4(C)CC[C@@]3(C)[C@@H]2C1 [Pristimerin],IC50,"[4]; 70 nM to 10 μM, 5 days post application, read-out: median ICM50 (half maximal inhibitory concentration of metabolic activity)",~500 nM
same,IC50,"[4]; Microsource compound, 5 days, read-out: median ICM50",580 nM
same,IC50,"[4]; Sigma compound, 5 days, read-out: median ICM50",430 nM
same,"decrease of frequency of clonogenic, neurosphere-forming cells",[5],30-60%
same,initial delay of cell growth,[6],≤ 10 days
same,time before surviving cells take on proliferative activity,[7],≥ 10 days
same,inhibition at 1 µM,[2],≤ 50%
same,IC50,[8],1100 nM
same,reduction of metabolic activity,"[3]; case 023, 1 μM",90%
same,reduction of metabolic activity,"[3]; case 035, 1 μM",97%
same,reduction of metabolic activity,"[3]; case 046, 1 μM",78%
same,reduction of metabolic activity,"[3]; case 106, 1 μM",97%
same,cells classified as avital,[9],more than 50%
C[C@@]12C(=O)OC(=O)[C@]1(C)[C@H]1CC[C@@H]2O1 [Cantharidin],effect on the metabolic activity of the #155 cells,[1],diminished the metabolic activity of the #155 cells significantly
same,effect on the primary GBM cells' metabolic activity,[3],no significant effect
CC[C@@]1(O)C(=O)OCc2c1cc1n(c2=O)Cc2cc3ccccc3nc2-1 [camptothecin],effect on the metabolic activity of the #155 cells,[1],very little effect
COc1cc([C@@H]2c3cc4c(cc3[C@@H](O[C@@H]3O[C@@H]5CO[C@@H](c6cccs6)O[C@H]5[C@H](O)[C@H]3O)[C@H]3COC(=O)[C@H]23)OCO4)cc(OC)c1O [Teniposide],effect on the metabolic activity of the #155 cells,[1],very little effect
same,inhibition at 1 µM,[2]; 1 μM,≤ 50%
COc1cc([C@@H]2c3cc4c(cc3[C@H](O)[C@H]3COC(=O)[C@@H]23)OCO4)cc(OC)c1OC [Picropodophyllotoxin],effect on the metabolic activity of the #155 cells,[1],very little effect
same,inhibition at 1 µM,[2],≤ 50%
"O=C1C(Cl)=C(Cl)C(=O)c2c(O)ccc(O)c21 [2,3-dichloro-5,8-dihydroxynapthoquinone]",effect on the metabolic activity of the #155 cells,[1],diminished the metabolic activity of the #155 cells significantly
same,effect on the primary GBM cells' metabolic activity,[3],no significant effect
C=C(C)[C@H]1Cc2c(ccc3c2O[C@@H]2COc4cc(OC)c(OC)cc4[C@@H]2C3=O)O1 [Rotenone],effect on the metabolic activity of the #155 cells,[1],very little effect
same,inhibition at 1 µM,[2],≤ 50%
CC[C@]1(O)C[C@H]2CN(CCc3c([nH]c4ccccc34)[C@@](C(=O)OC)(c3cc4c(cc3OC)N(C=O)[C@H]3[C@@](O)(C(=O)OC)[C@H](OC(C)=O)[C@]5(CC)C=CCN6CC[C@]43[C@@H]65)C2)C1 [vincristine sulfate],effect on the metabolic activity of the #155 cells,[1],very little effect
C=C1[C@@H](C)[C@H]2[C@H](Cc3ccccc3)NC(=O)[C@]23[C@H](OC(C)=O)/C=C/[C@@](C)(O)C(=O)[C@@H](C)C/C=C/[C@H]3[C@@H]1O [cytochalasin D],effect on the metabolic activity of the #155 cells,[1],diminished the metabolic activity of the #155 cells significantly
same,effect on the primary GBM cells' metabolic activity,[3],no significant effect
"Cn1nnc2c(C(N)=O)ncn2c1=O [TMZ, temozolomide]",reported plasma peak concentration,[10],50 µM
same,reduction of relative metabolic activity,"[3]; 50 μM TMZ, mean of four patient-specific primary cultures",17%
same,"relative metabolic activity, level","[3]; 500 μM TMZ, mean of four patient-specific primary cultures",63%
